Assay results from PMC6514978, “Synthesis, Antibacterial Activities, Mode of Action and Acute Toxicity Studies of New Oxazolidinone-Fluoroquinolone Hybrids” (Molecules, 2019).
Values after ≈ are worked out from the molar mass of the structure shown. Where two headings read alike, the source gives them in different places.

Columns and labels:
[1] = tested on: H. influenzae (ATCC49247); assay: MIC, broth microdilution (CLSI), standard strain; format: cell-based; details: Haemophilus influenzae
Text: (§1) 6 standard strains and 3 clinical isolates were used to the preliminary evaluation of in vitro antibacterial activities of oxazolidinone-fluoroquinolone hybrids. For the further evaluation of hybrids OBP-4 and OBP-5, 263 clinical isolates including S. aureus (46), S. haemolyticus(32), S. epidermidis (10), E. faecalis (72), E. faecium (47), S. pneumoniae (13), H. parasuis (34), S. suis (9), and 8 resistant strains including MRSA, MRSE, CIP-resistant S. aureus and S. haemolyticus, VAN and quinolone-resistant S. pneumoniae, LZD-resistant E. faecalis, LZD/VAN and quinolone-resistant E. faecium were collected and tested.
(§2) Susceptibility testing of oxazolidinone-fluoroquinolone hybrids against various bacteria was performed by the broth microdilution method as outlined by the Clinical and Laboratory Standards Institute (CLSI). Three types of media, including cation-adjusted Mueller Hinton broth, Haemophilus Test Medium and cation-adjusted Mueller Hinton broth that contained 3%–5% lysed horse blood, were used to culture the corresponding bacteria. All compounds including comparator drugs were dissolved in an appropriate solvent at a concentration of 2.048 mg/mL and then serially diluted two-fold to provide the required concentrations. A final inoculum of 5 × 10^5 CFU/mL was used and plates were read after incubation for 16–24 h at 35 °C. […] Standard quality control strains (ATCC) were included throughout. Each determination was repeated in triplicate.

[2] = tested on: S. aureus (ATCC29213); assay: MIC, broth microdilution (CLSI), standard strain; format: cell-based; details: Staphylococcus aureus
Text: as §1, §2

[3] = tested on: S. pneumoniae (ATCC49619); assay: MIC, broth microdilution (CLSI), standard strain; format: cell-based; details: Streptococcus pneumoniae
Text: as §1, §2

[4] = tested on: P. Aeruginosa (ATCC27853); assay: MIC, broth microdilution (CLSI), standard strain; format: cell-based; details: Pseudomonas aeruginosa; P. Aeruginosa (ATCC27853); read-out: MIC
Text: as §1, §2

[5] = tested on: E. faecalis (ATCC29212); assay: MIC, broth microdilution (CLSI), standard strain; format: cell-based; details: Enterococcus faecalis
Text: as §1, §2

[6] = tested on: E. coli (ATCC25922); assay: MIC, broth microdilution (CLSI), standard strain; format: cell-based; details: Escherichia coli; E. coli (ATCC25922); read-out: MIC
Text: as §1, §2

[7] = tested on: S. agalactiae^R (13B317), levofloxacin-resistant S. agalactiae; assay: MIC, broth microdilution (CLSI), clinical isolate; format: cell-based; details: Streptococcus agalactiae; levofloxacin-resistant S. agalactiae (13B317)
Text: as §1, §2

[8] = tested on: MRSA (13B262); assay: MIC, broth microdilution (CLSI), clinical isolate; format: cell-based; details: Staphylococcus aureus
Text: as §1, §2

[9] = tested on: VRE (13B330); assay: MIC, broth microdilution (CLSI), clinical isolate; format: cell-based, vancomycin-resistant enterococcus; details: Enterococcus
Text: as §1, §2

[10] = E. faecalis (ATCC29212), read-out: MIC

Compound | MIC [1] [µg/mL] | MIC [2] [µg/mL] | MIC [3] [µg/mL] | MIC [4] [µg/mL] | MIC [5, 10] [µg/mL] | MIC [6] [µg/mL] | MIC [7] [µg/mL] | MIC [8] [µg/mL] | MIC [9] [µg/mL] | MIC ([5]; ATCC29212) [µg/mL]
C[C@H]1COc2c(N3CCC(O)(COc4ccc(N5C[C@H](CO)OC5=O)cc4F)CC3)c(F)c(N)c3c(=O)c(C(=O)O)cn1c23 [OBP-3] | 2 (≈ 3.24 µM) | 2 (≈ 3.24 µM) | 0.5 (≈ 0.811 µM) | 128 (≈ 208 µM) | 1 (≈ 1.62 µM) | 64 (≈ 104 µM) | 0.5 (≈ 0.811 µM) | 2 (≈ 3.24 µM) | 2 (≈ 3.24 µM) | –
COc1c(N2C[C@@H]3CCCN[C@@H]3C2)c(F)cc2c(=O)c(C(=O)O)cn(C3CC3)c12 [MXF, moxifloxacin, reference compound] | 0.008 (≈ 0.0199 µM) | 0.031 (≈ 0.0772 µM) | 0.062 (≈ 0.154 µM) | 4 (≈ 9.96 µM) | – | 0.016 (≈ 0.0399 µM) | 4 (≈ 9.96 µM) | 8 (≈ 19.9 µM) | 64 (≈ 159 µM) | 0.125 (≈ 0.311 µM)
O=C(O)c1cn(C2CC2)c2cc(N3CC4C(C3)C4Nc3ccc(N4C[C@H](CO)OC4=O)cc3F)c(F)cc2c1=O (stereo partly drawn) [OBP-7] | 0.031 (≈ 0.0561 µM) | 0.25 (≈ 0.452 µM) | 2 (≈ 3.62 µM) | 64 (≈ 116 µM) | 1 (≈ 1.81 µM) | 0.5 (≈ 0.905 µM) | 4 (≈ 7.24 µM) | 128 (≈ 232 µM) | 128 (≈ 232 µM) | –

Second part, led by results:

MIC [1] [µg/mL] | MIC [2] [µg/mL] | MIC [3] [µg/mL] | MIC [4] [µg/mL] | MIC [5, 10] [µg/mL] | MIC [6] [µg/mL] | MIC [7] [µg/mL] | MIC [8] [µg/mL] | MIC [9] [µg/mL] | Compound | MIC ([5]; ATCC29212) [µg/mL]
0.5 (≈ 0.831 µM) | 0.25 (≈ 0.416 µM) | 0.25 (≈ 0.416 µM) | 64 (≈ 106 µM) | 1 (≈ 1.66 µM) | 4 (≈ 6.65 µM) | 0.25 (≈ 0.416 µM) | 1 (≈ 1.66 µM) | 1 (≈ 1.66 µM) | C[C@H]1COc2c(N3CCC(O)(COc4ccc(N5C[C@H](CO)OC5=O)cc4F)CC3)c(F)cc3c(=O)c(C(=O)O)cn1c23 [OBP-2] | –
0.016 (≈ 0.0281 µM) | 0.062 (≈ 0.109 µM) | 0.5 (≈ 0.878 µM) | 16 (≈ 28.1 µM) | 4 (≈ 7.02 µM) | 1 (≈ 1.76 µM) | 2 (≈ 3.51 µM) | 64 (≈ 112 µM) | 64 (≈ 112 µM) | CN1COc2c(N3CC4C(C3)C4Nc3ccc(N4C[C@H](CO)OC4=O)cc3F)c(F)cc3c(=O)c(C(=O)O)cn1c23 (stereo partly drawn) [OBP-6] | –
